Measurements taken from patent US9255100B2 (BAYER INTELLECTUAL PROPERTY GMBH, priority 2010, dated 2016).

Target: T1, N-terminally GST-tagged human full length recombinant Mps-1 kinase (Homo sapiens, UniProt P33981)
T1 construct: N-terminally GST-tagged human full length recombinant Mps-1 kinase; purchased Invitrogen, Karslruhe, Germany PV4071
T1 sequence (P33981 1-857): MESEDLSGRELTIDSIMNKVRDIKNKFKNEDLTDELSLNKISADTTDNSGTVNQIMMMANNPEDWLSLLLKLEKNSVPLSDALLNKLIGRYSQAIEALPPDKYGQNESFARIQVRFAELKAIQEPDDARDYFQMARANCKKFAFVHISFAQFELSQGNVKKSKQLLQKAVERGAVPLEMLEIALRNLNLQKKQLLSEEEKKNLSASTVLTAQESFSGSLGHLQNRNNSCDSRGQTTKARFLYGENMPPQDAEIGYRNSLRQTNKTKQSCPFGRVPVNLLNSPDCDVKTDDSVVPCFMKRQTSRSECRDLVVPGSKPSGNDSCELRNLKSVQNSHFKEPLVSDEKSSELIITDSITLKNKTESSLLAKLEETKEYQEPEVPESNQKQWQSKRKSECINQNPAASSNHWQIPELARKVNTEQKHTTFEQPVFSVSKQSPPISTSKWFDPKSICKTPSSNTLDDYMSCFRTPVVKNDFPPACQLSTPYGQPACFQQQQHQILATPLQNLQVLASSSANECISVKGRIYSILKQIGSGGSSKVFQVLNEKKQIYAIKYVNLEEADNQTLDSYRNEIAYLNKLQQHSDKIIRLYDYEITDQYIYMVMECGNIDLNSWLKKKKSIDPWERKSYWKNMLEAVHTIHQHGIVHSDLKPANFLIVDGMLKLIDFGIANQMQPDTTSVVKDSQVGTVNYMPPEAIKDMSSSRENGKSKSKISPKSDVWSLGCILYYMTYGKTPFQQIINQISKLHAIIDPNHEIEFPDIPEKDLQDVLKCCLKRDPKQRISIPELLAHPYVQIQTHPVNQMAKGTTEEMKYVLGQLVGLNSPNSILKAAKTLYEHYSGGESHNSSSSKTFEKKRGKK
Assay: Mps-1 kinase assay (TR-FRET)
Format: biochemical
Conditions: Mps1 IC50 [nM], 10 μM ATP, 1 μM peptide substrate, 60 min at 22° C.
Protocol: The human kinase Mps-1 phosphorylates a biotinylated substrate peptide. Detection of the phosphorylated product is achieved by time-resolved fluorescence resonance energy transfer (TR-FRET) from Europium-labelled anti-phospho-Serine/Threonine antibody as donor to streptavidin labelled with cross-linked allophycocyanin (SA-XLent) as acceptor. Compounds are tested for their inhibition of the kinase activity.
N-terminally GST-tagged human full length recombinant Mps-1 kinase (purchased from Invitrogen, Karslruhe, Germany, cat. no PV4071) was used. As substrate for the kinase reaction a biotinylated peptide of the amino-acid sequence […] (C-terminus in amide form, purchased from Biosynthan GmbH, Berlin) was used.
The concentration of Mps-1 in the assay was adjusted to the activity of the enzyme lot and was chosen appropriate to have the assay in the linear range, typical enzyme concentrations were in the range of about 1 nM (final conc. in the 5 μl assay volume).
The resulting mixture was incubated 1 h at 22° C. to allow the binding of the phosphorylated peptide to the anti-phospho(Ser/Thr)-Europium-antibody. Subsequently the amount of phosphorylated substrate was evaluated by measurement of the resonance energy transfer from the Europium-labelled anti-phospho(Ser/Thr) antibody to the Streptavidin-XLent.

| IC50 [nM] | SMILES |
| --- | --- |
| 4.3 | CCNC(=O)c1ccc(-c2cnc3c(NCCN4CCOCC4)cc(Oc4ccccc4C)nn23)cc1C [Example 589, N-ethyl-2-methyl-4-[6-(2-methylphenoxy)-8-{[2-(morpholin-4-yl)ethyl]amino}imidazo[1,2-b]pyridazin-3-yl]benzamide] |
| 0.2 | COc1ccc(Oc2cc(NCCC(F)(F)F)c3ncc(-c4ccc(C(=O)NC5CC5)c(C)c4)n3n2)cc1 [Example 471, N-cyclopropyl-4-{6-(4-methoxyphenoxy)-8-[(3,3,3-trifluoropropyl)amino]imidazo[1,2-b]pyridazin-3-yl}-2-methylbenzamide] |
| 8.2 | Cc1cc(Oc2cc(NCC(C)(C)O)c3ncc(-c4ccc(C(=O)NC5CC5)c(C)c4)n3n2)n[nH]1 [Example 415, N-cyclopropyl-4-{8-[(2-hydroxy-2-methylpropyl)amino]-6-[(5-methyl-1H-pyrazol-3-yl)oxy]imidazo[1,2-b]pyridazin-3-yl}-2-methylbenzamide] |
| 0.3 | Cc1cc(-c2cnc3c(NCCC(F)(F)F)cc(Oc4cccc(F)c4)nn23)ccc1C(=O)NCC(F)F [Example 556, N-(2,2-difluoroethyl)-4-{6-(3-fluorophenoxy)-8-[(3,3,3-trifluoropropyl)amino]imidazo[1,2-b]pyridazin-3-yl}-2-methylbenzamide] |
| < 1 | CNC(=O)c1ccc(-c2cnc3c(NCC4CCOCC4)cc(Oc4ccccc4C)nn23)cc1C [Example 568, N,2-dimethyl-4-{6-(2-methylphenoxy)-8-[(tetrahydro-2H-pyran-4-ylmethyl)amino]imidazo[1,2-b]pyridazin-3-yl}benzamide] |
| 0.3 | Cc1ccc(F)c(Nc2cc(NCC(C)(C)O)c3ncc(-c4ccc(C(=O)NC5CC5)c(C)c4)n3n2)c1 [Example 383, N-cyclopropyl-4-{6-[(2-fluoro-5-methylphenyl)amino]-8-[(2-hydroxy-2-methylpropyl)amino]imidazo[1,2-b]pyridazin-3-yl}-2-methylbenzamide] |
| 0.2 | Cc1ccc(F)cc1Oc1cc(NCCS(C)(=O)=O)c2ncc(-c3ccc(C(=O)NC4CC4)c(C)c3)n2n1 [Example 517, N-cyclopropyl-4-[6-(5-fluoro-2-methylphenoxy)-8-{[2-(methylsulfonyl)ethyl]amino}imidazo [1,2-b]pyridazin-3-yl]-2-methylbenzamide] |
| 0.2 | COc1ccc(Nc2cc(NCCC(F)(F)F)c3ncc(-c4ccc(C(=O)NC5CC5)c(C)c4)n3n2)cc1F [Example 424, N-cyclopropyl-4-{6-[(3-fluoro-4-methoxyphenyl)amino]-8-[(3,3,3-trifluoropropyl)amino]imidazo[1,2-b]pyridazin-3-yl}-2-methylbenzamide] |
| 0.1 | Cc1cc(-c2cnc3c(NCCCN)cc(Oc4cccc(F)c4)nn23)ccc1C(=O)NC1CC1 [Example 546, 4-{8-[(3-aminopropyl)amino]-6-(3-fluorophenoxy)imidazo[1,2-b]pyridazin-3-yl}-N-cyclopropyl-2-methylbenzamide] |
| 2.7 | CNC(=O)c1ccc(-c2cnc3c(NCCN4CCOCC4)cc(Oc4ccc(F)c(F)c4)nn23)cc1C [Example 562, 4-[6-(3,4-difluorophenoxy)-8-{[2-(morpholin-4-yl)ethyl]amino}imidazo[1,2-b]pyridazin-3-yl]-N,2-dimethylbenzamide] |
| < 1 | CNC(=O)c1ccc(-c2cnc3c(NCCC(F)(F)F)cc(Oc4ccc(OC)cc4F)nn23)cc1C [Example 576, 4-{6-(2-fluoro-4-methoxyphenoxy)-8-[(3,3,3-trifluoropropyl)a-mino]imidazo[1,2-b]pyridazin-3-yl}-N,2-dimethylbenzamide] |

The next lines start with the compound.

| SMILES | IC50 [nM] |
| --- | --- |
| Cc1cc(-c2cnc3c(NCC(C)(C)O)cc(-c4ccc(CO)cc4)nn23)ccc1C(=O)NC1CC1 [Example 155, N-cyclopropyl-4-{6-[4-(hydroxymethyl)phenyl]-8-[(2-hydroxy-2-methylpropyl)amino]imidazo[1,2-b]pyridazin-3-yl}-2-methylbenzamide] | 3.6 |
| Cc1cc(-c2cnc3c(NCCC(F)(F)F)cc(SCCC(C)(C)C)nn23)ccc1C(=O)NC1CC1 [Example 226, N-cyclopropyl-4-{6-[(3,3-dimethylbutyl)sulfanyl]-8-[(3,3,3-trifluoropropyl)amino]imidazo[1,2-b]pyridazin-3-yl}-2-methylbenzamide] | 1.3 |
| COC(C)(C)CNc1cc(-c2ccnn2C)nn2c(-c3ccc(C(=O)NC4CC4)c(C)c3)cnc12 [Example 39, N-cyclopropyl-4-{8-[(2-methoxy-2-methylpropyl)amino]-6-(1-methyl-1H-pyrazol-5-yl)imidazo[1,2-b]pyridazin-3-yl}-2-methylbenzamide] | 3.7 |
| Cc1cc(-c2cnc3c(NCC4COCCO4)cc(-c4ccncc4)nn23)ccc1C(=O)NC1CC1 (racemic) [Example 36, (RS)—N-cyclopropyl-4-{8-[(1,4-dioxan-2-ylmethyl)amino]-6-(pyridin-4-yl)imidazo[1,2-b]pyridazin-3-yl}-2-methylbenzamide] | 3 |
| CC(C)CNc1cc(Cl)nn2c(-c3ccc(C(N)=O)cc3)cnc12 [Example 176, 4-{6-Chloro-8-[(2-methylpropyl)amino]imidazo[1,2-b]pyridazin-3-yl}benzamide] | 465 |
| Cc1cc(-c2cnc3c(NCC(C)C)cc(-c4ccn[nH]4)nn23)ccc1C(=O)NC1CC1 [Example 195, N-cyclopropyl-2-methyl-4-{8-[(2-methylpropyl)amino]-6-(1H-pyrazol-5-yl)imidazo[1,2-b]pyridazin-3-yl}benzamide] | 3.2 |
| CC(C)CNc1cc(-c2ccsc2)nn2c(-c3ccc(C(=O)NC4CC4)cc3)cnc12 [Example 122, N-cyclopropyl-4-{8-[(2-methylpropyl)amino]-6-(thiophen-3-yl)imidazo [1,2-b]pyridazin-3-yl} benzamide] | 2.9 |
| Cc1cc(-c2cnc3c(NCCC(F)(F)F)cc(Sc4ccccc4)nn23)ccc1C(=S)NC1CC1 [Example 84, N-cyclopropyl-2-methyl-4-{6-(phenylsulfanyl)-8-[(3,3,3-trifluoropropyl)amino]imidazo[1,2-b]pyridazin-3-yl}benzenecarbothioamide] | 0.3 |
| COC(C)(C)CNc1cc(-c2ccccc2CO)nn2c(-c3ccc(C(=O)NC4CC4)c(C)c3)cnc12 [Example 38, N-cyclopropyl-4-{6-[2-(hydroxymethyl)phenyl]-8-[(2-methoxy-2-methylpropyl)amino]imidazo[1,2-b]pyridazin-3-yl}-2-methylbenzamide] | 10.3 |
| Cc1cc(-c2cnc3c(NCC(C)(C)O)cc(Sc4ncc[nH]4)nn23)ccc1C(=O)NC1CC1 [Example 318, N-cyclopropyl-4-{8-[(2-hydroxy-2-methylpropyl)amino]-6-(1H-imidazol-2-ylsulfanyl)imidazo[1,2-b]pyridazin-3-yl}-2-methylbenzamide] | 64.3 |
| COc1ccc(Nc2cc(NCC(C)(C)O)c3ncc(-c4ccc(C(=O)NC5CC5)c(C)c4)n3n2)cc1 [Example 354, N-cyclopropyl-4-{8-[(2-hydroxy-2-methylpropyl)amino]-6-[(4-methoxyphenyl)amino]imidazo[1,2-b]pyridazin-3-yl}-2-methylbenzamide] | 0.4 |
| Cc1cc(-c2cnc3c(NCCO)cc(Sc4cccc(F)c4)nn23)ccc1C(=O)NC1CC1 [Example 276, N-cyclopropyl-4-{6-[(3-fluorophenyl)sulfanyl]-8-[(2-hydroxyethyl)amino]imidazo[1,2-b]pyridazin-3-yl}-2-methylbenzamide] | 0.1 |
